The record followed here is patent publication US7618984B2, “Sulfonamide compound” (Asahi Kasei Pharma Corporation, priority 2005, dated 2009).

Experiment [1] has as its system monkey intraocular pressure. In words: Intraocular pressure reduction enhancing action in monkey (Test Example 7). The following applies: cynomolgus monkey. It is filed as in vivo. As for the experimental part:
Moreover, as for the test compound used for combination use, similar effect can be obtained also with the compounds of the present invention represented with the example numbers mentioned in Test Example 2. The test is performed by using cynomolgus monkeys sufficiently naturalized for the operation of fixation on a monkey chair and ophathalmotonometry.
As the test compound, the 19-1 compound is dissolved in physiological saline, and the solution is neutralized by addition of sodium hydroxide (pH 7.0 to 8.0) to prepare a 0.01 weight % aqueous solution (19-1 compound aqueous solution). As a drug for combination use, latanoprost (trade name: Xalatan, Pfizer) is used as the marketed formulation per se. The test aqueous solution or the drug for combination use is instilled to the left eye, and the right eye is not treated (control eye). […] After initial intraocular pressure values of the monkeys are measured for each group, 30 μL of physiological saline is instilled to the control group, single drug group 1, and single drug group 2, and latanoprost is instilled in the same volume to the combination use group. […] Then, the intraocular pressure is measured over time for each group.

Experiment [2] relates to phosphorylation of myosin regulatory light chain. The experiment in a line: Inhibitory action on phosphorylation of myosin regulatory light chain (Test Example 1). Type of experiment: cell-based. Conditions: Neutrophil, 5 min; human peripheral blood neutrophils, 25° C. for 5 minutes; read-out: IC50, compound concentration providing a phosphorylation inhibition ratio of 50% (myosin regulatory light chain). As for the experimental part:
A volume of 50 to 100 ml of peripheral blood collected from healthy volunteers was centrifuged by using Mono-Poly separator solution (Dainippon Pharmaceutical) to prepare a neutrophil containing fraction. The neutrophils were washed with PBS(−) and resuspended in Hanks' Balanced Salt Solution (HBSS+, Gibco) to prepare a cell suspension (8×10^6/ml). The cell suspension was diluted to 5×10^6/ml, introduced into Eppendorf tubes in a volume of 0.4 ml each, then 0.1 ml each of solutions of a test compound at various concentrations were added to the suspension and allowed to react at 25° C. for 5 minutes. After the reaction, 0.1 ml of trichloroacetic acid solution was added to each reaction mixture, the reaction mixture was gently shaken and centrifuged at 12,000 rpm (4° C., 5 minutes), and the supernatant was removed. Subsequently, 3 μl of 1 M Tris solution was added to the residue, the mixture was further mixed with 50 μl of extraction buffer (8 M urea, 0.02% 2-mercaptoethanol, 0.002% bromophenol blue) and left stand at room temperature for 1 hour. Then, the reaction mixture was loaded on a spin column (0.45 μm, Millipore) to remove the insoluble solids and a sample buffer for SDS polyacrylamide gel electrophoresis (25 mM, Tris-HCl pH 6.8, 2.5% 2-mercaptoethanol, 2% sodium dodecylsulfate, 5% sucrose, 0.002% bromophenol blue as final concentrations) was added, and 10 μl of each sample was subjected to electrophoresis.
The gel after the electrophoresis was blotted on a nitrocellulose membrane (BioRad), blocked with 5% skim milk, and reacted successively with antibodies pLC1 (Sakurada K. et al, Am. J. Physiol., 274, C1563-C1572 (1998)), which specifically recognize the phosphorylated myosin regulatory light chain, and donkey anti-mouse IgG (Chemicon) conjugated with horseradish peroxidase. The band of the phosphorylated myosin regulatory light chain was detected on a film by using ECL Plus Kit (Amersham Pharmacia Biotech). This band was subjected to quantification using a densitometer. By using this value, the inhibitory ratio (%) for phosphorylation of the myosin regulatory light chain was calculated by using the following equation. Phosphorylation inhibition ratio(%)=1−(Band intensity of phosphorylated myosin regulatory light chain with addition of the test compound/Band intensity of phosphorylated myosin regulatory light chain without addition of the test compound)×100
Further, the phosphorylation inhibition ratio was calculated with changing the concentrations of the test compound, and a compound concentration providing an inhibition ratio of 50% was obtained as IC50.

The subject of experiment [3] is rabbit intraocular pressure. The experiment in a line: Rabbit intraocular pressure reduction enhancing action, combination with timolol maleate (Test Example 6-2). Type of experiment: in vivo, Japanese white rabbit. Conditions: 0.01 weight % 19-1 compound aqueous solution and/or timolol maleate (Timoptol), 50 μL; difference relative to the control group, 1, 2 and 4 hours. As for the experimental part:
As a test compound, the 19-1 compound was dissolved in physiological saline, and the solution was neutralized by addition of sodium hydroxide (pH 7.0 to 8.0) to prepare a 0.01 weight % aqueous solution (19-1 compound aqueous solution). As a drug for combination use, timolol maleate (trade name: Timoptol, Santen Pharmaceutical) was used as an adrenergic receptor β blocker, as the marketed formulation as it was.
A Japanese white rabbit having a body weight of about 2 kg was placed in a positioner and naturalized for one week before the experiment. An opthalmologic local anesthesant (Benoxil) was administered to both eyes, and then intraocular pressure before instillation was measured by using a tonometer (Classic 30, Solan). […] The intraocular pressure thereafter was measured for each group 1, 2 and 4 hours after the second administration of the test compound, and the difference of the measured values at each measurement time for the each group and the control group was considered an intraocular pressure reduction value of each group. The largest difference of the intraocular pressure values relative to the control group among those of the measured values of the measurement times was considered the maximum intraocular pressure reduction value (max ΔIOP) of each drug group.

Take `N[C@H]1CCN(S(=O)(=O)c2cccc3cncc(Cl)c23)C1` [Example 19-1, (S)-3-Amino-1-(4-chloro-5-isoquinolinesulfonyl)pyrrolidine]: in experiment [1] (0.01 weight % aqueous solution, 30 μL), the “intraocular pressure reducing action in the single drug group 1” value is “exceeding that of the control group”. The “intraocular pressure reducing action in the combination use group” value in experiment [1] (latanoprost (Xalatan) 30 μL, 5 minutes later 19-1 compound aqueous solution 30 μL) was “exceeding those of both the single drug group 1 and single drug group 2”. Besides, the IC50 in experiment [2] was under 10 µM. Also, the “Max ΔIOP (maximum intraocular pressure reduction value), Table 4” value in experiment [3] worked out at 4.1 mmHg.
